Earlier results, collected in patent US20110008439A1, “DULOXETIN COMPOSITION” (priority 2006, published 2011).

Settings: pH values less than 2.5

CNCC[C@H](Oc1cccc2ccccc12)c1cccs1 [Duloxetine, duloxetine]
Stability in solution: unstable
